According to PMC6813166 (CPT: Pharmacometrics & Systems Pharmacology, 2019):

Key:
[1] = Population PK analysis; format: in vivo, human; conditions: for V1, final model estimate (RSE%): apparent volume of the central compartment; for V2, final model estimate (RSE%): apparent volume of the peripheral compartment; for BSV in V1, final model CV% (shrink) / BSV in V2, final model CV% (shrink): between-subject variability; for Q, final model estimate (RSE%): intercompartmental clearance; for CL, final model estimate (RSE%): population PK, healthy volunteers and patients, i.v. infusion; for Covariate on CL: CrCL (power), final model estimate (RSE%): power relationship centered on the median; for Proportional Error, final model CV% (shrink): residual variability
[2] = imipenem monotherapy, in vivo animal models; cited from earlier work
[3] = patients; cited from earlier work
[4] = Simulation of upper and lower clinical bounds of exposure; parameters: species or system human
[5] = system: Pseudomonas aeruginosa and Enterobacteriaceae; conditions: HF model; cited from earlier work
[6] = 625 mg q6h for 7 days, healthy adult volunteers; cited from earlier work

Row | SMILES | V1, final model estimate (RSE%) [1] | V2, final model estimate (RSE%) [1] | BSV in V1, final model CV% (shrink) [1] | BSV in V2, final model CV% (shrink) [1] | Covariate on V1: WT (power), final model estimate (RSE%) ([1]; body weight) | BSV in V1, bootstrap CV% ([1]; bootstrap n = 1,000) | BSV in V2, bootstrap CV% ([1]; bootstrap n = 1,000) | CL, bootstrap estimate (RSE%) ([1]; bootstrap n = 1,000) | Covariate on CL: CrCL (power), bootstrap estimate (RSE%) ([1]; bootstrap n = 1,000) | Covariate on V1: WT (power), bootstrap estimate (RSE%) ([1]; bootstrap n = 1,000) | Proportional Error, bootstrap CV% ([1]; bootstrap n = 1,000) | Q, bootstrap estimate (RSE%) ([1]; bootstrap n = 1,000) | V1, bootstrap estimate (RSE%) ([1]; bootstrap n = 1,000) | V2, bootstrap estimate (RSE%) ([1]; bootstrap n = 1,000) | Q, final model estimate (RSE%) [1] | CL, final model estimate (RSE%) [1] | Covariate on CL: CrCL (power), final model estimate (RSE%) [1] | Proportional Error, final model CV% (shrink) [1] | other results
1 | C[C@@H](O)[C@H]1C(=O)N2C(C(=O)O)=C(SCCN=CN)C[C@H]12 [imipenem] | 15.83 (3.2) L | 5.84 (4.0) L | 74.4 (7.4) CV% | 35.0 (52.9) CV% | 0.74 (19.1) | 74.2 CV% | 34.8 CV% | 12.53 (2.0) L/hour | 0.46 (8.0) | 0.76 (21.6) | 16.1 CV% | 11.15 (6.7) L/hour | 15.76 (3.4) L | 5.86 (3.9) L | 11.09 (6.5) L/hour | 12.53 (2.0) L/hour | 0.46 (8.1) | 16.1 (19.0) CV% | Covariate on CL: WT (power), final model estimate (RSE%) ([1]; body weight): 0.33 (30.5); Covariate on CL: WT (power), bootstrap estimate (RSE%) ([1]; bootstrap n = 1,000): 0.34 (32.2); Covariate on V1: Healthy, bootstrap estimate (RSE%) ([1]; bootstrap n = 1,000): −0.28 (10.0); Covariate on V1: Healthy, final model estimate (RSE%) ([1]; proportional change, healthy volunteers vs patients): −0.29 (9.5); fT > MIC required to achieve 1-log kill to 2-log kill [2]: ~ 30%; concentration lower in peritoneal fluid than in plasma, on average [3]: 25%
2 | O=C(NC1CCNCC1)[C@@H]1CC[C@@H]2CN1C(=O)N2OS(=O)(=O)O [relebactam] | 11.08 (2.9) L | 6.41 (3.8) L | 59.5 (18.8) CV% | 41.1 (49.8) CV% | 0.70 (15.8) | 59.4 CV% | 41.0 CV% | 7.02 (2.0) L/hour | 0.75 (8.3) | 0.72 (17.9) | 15.3 CV% | 10.48 (7.0) L/hour | 11.06 (2.9) L | 6.43 (3.6) L | 10.45 (6.8) L/hour | 7.02 (2.0) L/hour | 0.75 (8.3) | 15.3 (14.1) CV% | AUC0-24 hours target [4]: 76.9 µM·h; fAUC0-24 hours/MIC required to achieve 2-log kill [5]: ≥ 7.5; safety and tolerability [6]: safe and well tolerated
